Key:
Bactrocera oleae flies = assay: Insecticidal action in the dark: fly survival after porphyrin bait; assay type: in vivo; conditions: fed 24 h, survival 12 h after change to porphyrin-free bait
Method: (§1) These flies were then used in the various experimental sessions. […] The number of survivors was evaluated 12 h after switching from administration of a porphyrin-containing bait to a porphyrin-free bait. In none of the experiments was mortality or any apparent toxic effect observed in control flies (flies not fed with porphyrin, see survival at 0 μM porphyrin concentration).

[1] = system: Stomoxis calcitrans flies; assay: as above; assay type: in vivo; conditions: fed 24 h, survival 12 h after change to porphyrin-free bait
Method: as §1

Row | SMILES | Survival (% of control untreated flies) (Bactrocera oleae flies; 0.75 μM in bait) | Survival (% of control untreated flies) (Bactrocera oleae flies; 1.25 μM in bait) | Survival (% of control untreated flies) (Bactrocera oleae flies; 2.10 μM in bait) | Survival (% of control untreated flies) (Bactrocera oleae flies; 3.00 μM in bait) | Survival (% of control untreated flies) (Bactrocera oleae flies; 5.00 μM in bait) | Survival (% of control untreated flies) (Bactrocera oleae flies; 8.10 μM in bait) | Survival (% of control untreated flies) ([1]; 0.75 μM in bait) | Survival (% of control untreated flies) ([1]; 1.25 μM in bait) | Survival (% of control untreated flies) ([1]; 2.10 μM in bait) | Survival (% of control untreated flies) ([1]; 3.00 μM in bait) | Survival (% of control untreated flies) ([1]; 5.00 μM in bait) | Survival (% of control untreated flies) ([1]; 8.10 μM in bait)
1 | CCCCCCCCCCCCCCCCCC[n+]1ccc(-c2c3nc(c(-c4cc[n+](C)cc4)c4ccc([nH]4)c(-c4cc[n+](C)cc4)c4nc(c(-c5cc[n+](C)cc5)c5ccc2[nH]5)C=C4)C=C3)cc1 [C18, meso[tri(N-methyl-pyridyl), mono(N-octadecyl-pyridyl)]porphine] | 100 % of control untreated flies | 100 % of control untreated flies | 53 % of control untreated flies | 39 % of control untreated flies | 16 % of control untreated flies | 3 % of control untreated flies | 100 % of control untreated flies | 79 % of control untreated flies | 45 % of control untreated flies | 24 % of control untreated flies | 10 % of control untreated flies | 0 % of control untreated flies
2 | CCCCCCCCCCCC[n+]1ccc(-c2c3nc(c(-c4cc[n+](C)cc4)c4ccc([nH]4)c(-c4cc[n+](C)cc4)c4nc(c(-c5cc[n+](C)cc5)c5ccc2[nH]5)C=C4)C=C3)cc1 [C12, meso[tri(N-methyl-pyridyl), mono(N-dodecyl-pyridyl)]porphine] | 100 % of control untreated flies | 100 % of control untreated flies | 85 % of control untreated flies | 72 % of control untreated flies | 58 % of control untreated flies | 51 % of control untreated flies | 100 % of control untreated flies | 82 % of control untreated flies | 64 % of control untreated flies | 47 % of control untreated flies | 29 % of control untreated flies | 16 % of control untreated flies
3 | CCCCCCCCCCCCCC[n+]1ccc(-c2c3nc(c(-c4cc[n+](C)cc4)c4ccc([nH]4)c(-c4cc[n+](C)cc4)c4nc(c(-c5cc[n+](C)cc5)c5ccc2[nH]5)C=C4)C=C3)cc1 [C14, meso[tri(N-methyl-pyridyl), mono(N-tetradecyl-pyridyl)]porphine] | 100 % of control untreated flies | 100 % of control untreated flies | 69 % of control untreated flies | 50 % of control untreated flies | 37 % of control untreated flies | 19 % of control untreated flies | 100 % of control untreated flies | 77 % of control untreated flies | 52 % of control untreated flies | 31 % of control untreated flies | 11 % of control untreated flies | 3 % of control untreated flies
